Source: patent publication US8846627B2, “Method for treatment of malaria” (The Second Military Medical University, priority 2009, dated 2014)

Biological target: T1, Falcipain-2 protease (FP-2) (Plasmodium falciparum, UniProt Q8I6U4)
T1 construct: The falcipain-2 fragment was amplified by the polymerase chain reaction (PCR); His6 (N-terminal MRGS-His6 supplied by the pQE-30 vector; own knowledge of the vector, consistent with the Ni2+-NTA purification) (N); made in house; host or cells: E. coli M15
T1 sequence (Q8I6U4 244-484): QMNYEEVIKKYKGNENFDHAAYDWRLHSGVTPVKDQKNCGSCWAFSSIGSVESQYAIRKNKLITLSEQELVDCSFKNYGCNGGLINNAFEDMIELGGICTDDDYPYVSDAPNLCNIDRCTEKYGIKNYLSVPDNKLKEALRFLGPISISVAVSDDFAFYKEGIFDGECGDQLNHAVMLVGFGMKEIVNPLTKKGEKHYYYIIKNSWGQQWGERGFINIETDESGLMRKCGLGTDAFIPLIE
Experiment: SPR (Biacore 3000) binding assay with immobilised FP-2 protein
Conditions: SPR screening at 1 μM and 10 μM
Description: The screening and kinetics determination of the falcipain-2 protease and tiliroside binding activity are based on SPR mechanism, which employs Biacore 3000 (Biacore AB, Uppsala, Sweden).
(1) The Construction of Falcipain-2 Plasmid (pQE30-Fal2)
Primers were designed according to the falcipain-2 cDNA sequence, utilizing the following primers, forward 5′[…]3′(SEQ ID NO. 1) and reverse 5′[…]3′ (SEQ ID NO. 2), which including two restriction sites, BamH I and SaI I The falcipain-2 fragment was amplified by the polymerase chain reaction (PCR), and the PCR product was ligated into the pQE-30 expression vector and then further verified by sequencing. This construct was transformed into E. coil M15 (Qiagen).
(2) Expression and Purification of Falcipain-2 Protein
The engineering bacteria were obtained by transforming constructed plasmid pQE30-Fal2 into the E. coli M15 cells. They were culturing in LB medium (10 g/L tryptone, 5 g/L yeast extract, 10 g/L sedium chloride) containing ampicillin […] and kanamtcin […] for overnight. Then, transfer the bacteria into fresh LB medium (1 L) containing ampicillin and kanamycin (according to 1:100) at 37° C., 220 rpm. […] Bound protein was eluted with 8M urea, 20 mM Tris-Cl, 1M imidazole, pH 8.0, and the eluted protein was analyzed by SDS-PAGE. […]

Structure (SMILES): O=C(/C=C/c1ccc(O)cc1)OC[C@H]1O[C@@H](Oc2c(-c3ccc(O)cc3)oc3cc(O)cc(O)c3c2=O)[C@H](O)[C@@H](O)[C@@H]1O [Tiliroside]
- binding activity with FP-2 protein: obvious binding activity
